Assay results: ChEMBL document CHEMBL1123518, “Synthesis and biological evaluation of irreversible inhibitors of aldose reductase” (J Med Chem, 1986)

What was measured:
[1] = target: Aldo-keto reductase family 1 member B1 (Rattus norvegicus) (UniProt P07943); experiment: Compound was tested for % inhibition against RLAR (aldose reductase) at a concentration of 10 micro M.
[2] = target: Aldo-keto reductase family 1 member B1 (Rattus norvegicus) (UniProt P07943); experiment: Compound was tested for % inhibition against RLAR (aldose reductase)at a concentration of 10 uM, pre-incubated with 100 uM sorbinil
[3] = target: Aldo-keto reductase family 1 member B1 (Rattus norvegicus, UniProt P07943); experiment: Compound was tested for 50% inhibitory concentration that was required for irreversible inhibition of aldose reductase

| Structure (SMILES) | IC50 [3] | inhibition [1] | inhibition [2] |
| --- | --- | --- | --- |
| S=C=Nc1ccccc1 |  | 34% | 5% |
| O=C(O)CN1C(=O)c2cccc3cc(N=C=S)cc(c23)C1=O | 0.3 µM | 57% | 5% |

Continued, in another order:

| IC50 [3] | Structure (SMILES) | inhibition [1] | inhibition [2] |
| --- | --- | --- | --- |
| 3.6 µM | [N-]=[N+]=Nc1cc2c3c(cccc3c1)C(=O)N(CC(=O)O)C2=O |  |  |
| 38 µM | COC(=O)CN1C(=O)c2cccc3cc(N=[N+]=[N-])cc(c23)C1=O |  |  |
| 14 µM | COC(=O)CN1C(=O)c2cccc3cc(N=C=S)cc(c23)C1=O |  |  |
